Test results as given in patent EP0196005A1, “Pyridazinones, their preparation and pharmaceutical compositions containing them” (Dr. Karl Thomae GmbH, priority 1985, dated 1986).
pEC50: −log10 of the molar value.

Assays:
narkotisierten Katze = test: Blood pressure lowering and positive inotropic effect in the anaesthetised cat; type: in vivo; settings: 0,1 mg/kg i.v., mean of 3 cats; for Wirkungsdauer (Halbwerts-zeit): anaesthetised cats; for Blutdruck änderung in mmHg: second value of the printed pair (presumably diastolic), pentobarbital-anaesthetised cats
Experimental: 2. Bestimmung der blutdrucksenkenden und positiv inotropen Wirkung an der narkotisierten Katze:
Die Untersuchungen wurden an Katzen durchgeführt, die mit Pentobarbital-Natrium (40 mg/kg i.p.) narkotisiert waren. Die Tiere atmeten spontan. Der arterielle Blutdruck wurde in der Aorta abdominalis mit einem Statham-Druckwandler (P 23 Dc) gemessen. Für die Erfassung der positiv inotropen Wirkung wurde mit einem Kathetertipmanometer (Milliar PC-350 A) der Druck in der linken Herzkammer gemessen. Daraus wurde der Kontraktilitätsparameter dp/dtmax mittels eines Analogdifferenzierers gewonnen. Die zu untersuchende Substanz wurden in eine Vena femoralis injiziert Als Lösungsmittel diente Polydiol 200. Die Substanz wurde an 3 Katzen geprüft, Dosis 0,1 i.v..

Thrombozytenaggregation = test: Platelet aggregation according to Born and Cross (collagen-induced, photometric); type: cell-based, gesunder Versuchspersonen; settings: collagen-induced aggregation in platelet-rich plasma of healthy subjects
Experimental: 1. Bestimmung der Thrombozytenaggregation nach Bom und Cross (J. Physiol. 170, 397 (1964)):
Die Thrombozytenaggregation wurde in plättchenreichem Plasma gesunder Versuchspersonen gemessen. Hierbei wurde der Verlauf der Abnahme der optischen Dichte nach Zugabe von handelsüblichem Collagen der Firma Sigma, St. Louis/USA, welches 1 mg Collagen-Fibrillen pro ml enthält, photometrisch gemessen und registriert. Aus dem Neigungswinkel der Dichtekurve wurde auf die Aggregationsgeschwindigkeit (Vmax) geschlossen. Der Punkt der Kurve, bei dem die größte Lichtdurchlässigkeit vorlag, diente zur Berechnung der "optical density" (O.D.). Zur maximalen Aggregationsauslösung werden ca. 0,01 ml der Collagenlösung zu 1 ml plättchenreichem Plasma gegeben.

Compound | Wirkungsdauer (Halbwerts-zeit) (narkotisierten Katze) | Blutdruck änderung in mmHg (narkotisierten Katze) | pEC50 (Thrombozytenaggregation)
CC1CC(=O)NN=C1c1ccc2nc(-n3ccnc3)[nH]c2c1 (stereo not shown) [F, 5-Methyl-6-[2-(1-imidazolyl)-benzimidazol-5-yl]-4,5-dihydro-3(2H)-pyridazinon] | 8 Minuten | -20 mmHg | –
CC1CC(=O)NN=C1c1ccc2[nH]c(N3CCCC3)nc2c1 (stereo not shown) [D] | 13 Minuten | -17 mmHg | –
CC1CC(=O)NN=C1c1ccc2[nH]c(N3CCSCC3)nc2c1 (stereo not shown) [E, 5-Methyl-6-[2-(4-thiomorpholino)-benzimidazol-5-yl]-4,5-dihydro-3(2H)-pyridazinon] | 10 Minuten | -12 mmHg | –
CC1CC(=O)NN=C1c1ccc2oc(-n3ccnc3)nc2c1 (stereo not shown) [A, 5-Methyl-6-[2-(1-imidazolyl)-benzoxazol-5-yl]-4,5-dihydro-3(2H)-pyridazinon] | 25 Minuten | -45 mmHg | 7.51
CCOC(=O)N1CCN(c2nc3ccc(C4=NNC(=O)CC4C)cc3o2)CC1 (stereo not shown) [C, 5-Methyl-6-[2-(4-carbäthoxy-1-piperazinyl)-benzoxazol-6-yl]-4,5-dihydro-3(2H)-pyridazinon] | 12 Minuten | -50 mmHg | –
CC1CC(=O)NN=C1c1ccc2nc(N3CCNCC3)oc2c1 (stereo not shown) [B, 5-Methyl-6-[2-(1-piperazinyl)-benzoxazol-6-yl]-4,5-dihydro-3(2H)-pyridazinon] | 12 Minuten | -43 mmHg | –
